Reference: ChEMBL document CHEMBL1201862, “PubChem BioAssay data set” (2004)
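Results reflect a 48-hour exposure of cells in 96-well plates to compound at five concentrations. Abbreviation: GI50, concentration required for 50% inhibition of growth.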 Active and inactive are the calls of the source. Rule as the data show it: active = GI50 up to about 1.1 µM and inactive = higher.

Assays:
Assay in all cases: inhibition of tumour cell growth, NCI panel, 48 h
[1] = test system: NCI/ADR-RES
[2] = test system: COLO 205
[3] = test system: Malme-3M
[4] = test system: SR
[5] = test system: IGROV-1
[6] = test system: SK-MEL-5
[7] = test system: OVCAR-3
[8] = test system: K562
[9] = test system: BT-549
[10] = test system: SNB-19
[11] = test system: SW-620
[12] = test system: MOLT-4
[13] = test system: NCI-H226
[14] = test system: SF-268
[15] = test system: MDA-MB-231
[16] = test system: EKVX
[17] = test system: SF-295
[18] = test system: HT-29
[19] = test system: RPMI-8226
[20] = test system: NCI-H23

Row | Structure (SMILES) | GI50 [1] | GI50 [2] | GI50 [3] | GI50 [4] | GI50 [5] | GI50 [6] | GI50 [7] | GI50 [8] | GI50 [9] | GI50 [10] | GI50 [11] | GI50 [12] | GI50 [13] | GI50 [14] | GI50 [15] | GI50 [16] | GI50 [17] | GI50 [18] | GI50 [19] | GI50 [20]
1 | CC[C@@]1(O)C(=O)OCc2c1cc1n(c2=O)Cc2c-1nc1ccccc1c2/C=N\NC(=O)C(N)=O | 1.6 µM (inactive) | > 50.1 µM (inactive) | 7.06 µM (inactive) | < 0.01 µM (active) | 4.79 µM (inactive) | 0.222 µM (active) | 18.3 µM (inactive) | 0.505 µM (active) | 3.44 µM (inactive) | 0.0383 µM (active) | 1.42 µM (inactive) | < 0.0138 µM (active) | 0.219 µM (active) | < 0.0292 µM (active) | 31.8 µM (inactive) | 19.5 µM (inactive) | 0.151 µM (active) | 4.36 µM (inactive) | 0.61 µM (active) | 0.0543 µM (active)
2 | CC(=O)OCC1OC(n2c3c(cc(C#N)c2=S)CCCCCC3)C(OC(C)=O)C(OC(C)=O)C1OC(C)=O (stereo unspecified) | > 100 µM (inactive) | 84.1 µM (inactive) | > 100 µM (inactive) | 36.8 µM (inactive) | > 100 µM (inactive) | 72.1 µM (inactive) | > 100 µM (inactive) | 32.1 µM (inactive) | > 100 µM (inactive) | > 100 µM (inactive) |  | 26.1 µM (inactive) | > 100 µM (inactive) | > 100 µM (inactive) | > 100 µM (inactive) |  | > 100 µM (inactive) | 41.2 µM (inactive) | 55.5 µM (inactive) | > 100 µM (inactive)
3 | COC(=O)c1c(O)ccc2[nH]c3c(O)c4ccccc4cc3c12 | 29.9 µM (inactive) | 18.3 µM (inactive) | 20.2 µM (inactive) | 43.5 µM (inactive) | 16.7 µM (inactive) | 24 µM (inactive) | 15.9 µM (inactive) | 47 µM (inactive) | 39.3 µM (inactive) | 41.7 µM (inactive) |  | 37.2 µM (inactive) | 65.8 µM (inactive) | 21.9 µM (inactive) | 75 µM (inactive) | 16.8 µM (inactive) | 18.9 µM (inactive) | 33.3 µM (inactive) | 17.4 µM (inactive) | 23 µM (inactive)
4 | c1ccc2nc3c(nc2c1)sc1nc2ccccc2n13 | > 100 µM (inactive) | > 100 µM (inactive) | > 100 µM (inactive) | > 100 µM (inactive) | > 100 µM (inactive) | > 100 µM (inactive) | > 100 µM (inactive) | > 100 µM (inactive) | > 100 µM (inactive) | 93.8 µM (inactive) |  | > 100 µM (inactive) | > 100 µM (inactive) | 56.1 µM (inactive) | > 100 µM (inactive) | > 100 µM (inactive) | 45 µM (inactive) | > 100 µM (inactive) | > 100 µM (inactive) | > 100 µM (inactive)
5 | CC1=C2CC(C)(C)CC(=O)C2(C)CCC1=O (stereo unspecified) | > 100 µM (inactive) | > 100 µM (inactive) | > 100 µM (inactive) | 94.2 µM (inactive) | > 100 µM (inactive) | > 100 µM (inactive) |  | > 100 µM (inactive) | > 100 µM (inactive) | > 100 µM (inactive) | > 100 µM (inactive) | > 100 µM (inactive) | > 100 µM (inactive) | > 100 µM (inactive) | > 100 µM (inactive) | > 100 µM (inactive) | > 100 µM (inactive) | > 100 µM (inactive) | 3.02 µM (inactive) | > 100 µM (inactive)
6 | C(=N\c1ccc2c(c1)Cc1ccccc1-2)/c1ccccn1 | 91.2 µM (inactive) |  | > 100 µM (inactive) | 24.9 µM (inactive) | > 100 µM (inactive) | 61.5 µM (inactive) | 61.7 µM (inactive) | 30.9 µM (inactive) | 81.8 µM (inactive) | > 100 µM (inactive) | 44.6 µM (inactive) | 23 µM (inactive) | > 100 µM (inactive) | 76.4 µM (inactive) | 68.2 µM (inactive) | 28.8 µM (inactive) | > 100 µM (inactive) | 63.1 µM (inactive) | > 10 µM (inactive) | 74.8 µM (inactive)
7 | CC(=O)OC[C@]1(C(=O)C(O)c2ccoc2)[C@H](C)CC[C@@]23COC(=O)C2=CCC[C@@H]31 (stereo partly specified) | > 10 µM (inactive) | > 10 µM (inactive) |  | > 10 µM (inactive) | > 10 µM (inactive) | > 10 µM (inactive) | > 10 µM (inactive) |  | > 10 µM (inactive) | > 10 µM (inactive) | > 10 µM (inactive) | > 10 µM (inactive) | > 10 µM (inactive) | > 10 µM (inactive) | > 10 µM (inactive) | > 10 µM (inactive) | > 10 µM (inactive) | > 10 µM (inactive) | > 10 µM (inactive) | > 10 µM (inactive)
8 | Cn1c(=O)n2n(c1=O)Cc1cccc3cccc(c13)C2 | > 100 µM (inactive) | > 100 µM (inactive) | > 100 µM (inactive) | > 100 µM (inactive) |  | > 100 µM (inactive) | > 100 µM (inactive) | > 100 µM (inactive) | > 100 µM (inactive) | > 100 µM (inactive) | > 100 µM (inactive) | > 100 µM (inactive) | > 100 µM (inactive) | > 100 µM (inactive) | > 100 µM (inactive) | > 100 µM (inactive) | > 100 µM (inactive) | > 100 µM (inactive) | > 100 µM (inactive) | > 100 µM (inactive)
9 | CCOC(=O)c1c(O)cn2c1[nH]c1cccc3cccc2c31 | > 100 µM (inactive) | 71.6 µM (inactive) | > 100 µM (inactive) | 50.5 µM (inactive) | 62.2 µM (inactive) | > 100 µM (inactive) |  | > 100 µM (inactive) | > 100 µM (inactive) | 97.7 µM (inactive) | > 100 µM (inactive) | 44.2 µM (inactive) | > 100 µM (inactive) | 63.7 µM (inactive) | > 100 µM (inactive) | > 100 µM (inactive) | 87.5 µM (inactive) | > 100 µM (inactive) | > 100 µM (inactive) | 62.4 µM (inactive)
10 | CN(CCN1C(=O)c2cccc3cccc(c23)C1=O)CCN1C(=O)c2cccc3cccc(c23)C1=O | 13.5 µM (inactive) | 2.55 µM (inactive) | 6 µM (inactive) | 3.37 µM (inactive) | 17.4 µM (inactive) | > 100 µM (inactive) | 21.2 µM (inactive) | 73.1 µM (inactive) | 53.1 µM (inactive) | 3.17 µM (inactive) |  | 7.73 µM (inactive) | 17.5 µM (inactive) | 27.7 µM (inactive) | 13.7 µM (inactive) | > 100 µM (inactive) | 12.8 µM (inactive) | > 100 µM (inactive) |  | 16.9 µM (inactive)
11 | O=C(Nc1ccc(Cl)c(C(F)(F)F)c1)C(=O)c1c(O)c2ccccc2oc1=O | > 100 µM (inactive) |  | > 100 µM (inactive) | > 100 µM (inactive) | > 100 µM (inactive) | > 100 µM (inactive) | > 100 µM (inactive) | > 100 µM (inactive) | > 100 µM (inactive) | > 100 µM (inactive) | > 100 µM (inactive) | > 100 µM (inactive) | > 100 µM (inactive) | > 100 µM (inactive) | > 100 µM (inactive) | > 100 µM (inactive) | > 100 µM (inactive) | > 100 µM (inactive) | > 100 µM (inactive) | > 100 µM (inactive)
12 | COC(=O)C1C2CCCN2OC1(C)CO (stereo unspecified) | > 100 µM (inactive) | > 100 µM (inactive) |  | > 100 µM (inactive) | > 100 µM (inactive) | > 100 µM (inactive) | > 100 µM (inactive) | > 100 µM (inactive) | > 100 µM (inactive) | > 100 µM (inactive) | > 100 µM (inactive) | > 100 µM (inactive) | > 100 µM (inactive) | > 100 µM (inactive) | > 100 µM (inactive) | > 100 µM (inactive) | > 100 µM (inactive) | > 100 µM (inactive) | > 100 µM (inactive) | > 100 µM (inactive)
13 | CCN(CC)CCCNC(=O)c1cc2cc(NC(=O)c3cc4cc([N+](=O)[O-])ccc4[nH]3)ccc2[nH]1 | > 100 µM (inactive) | > 100 µM (inactive) |  | > 100 µM (inactive) | > 100 µM (inactive) | > 100 µM (inactive) | 7.89 µM (inactive) | > 100 µM (inactive) | > 100 µM (inactive) | > 100 µM (inactive) | 68.2 µM (inactive) |  | > 100 µM (inactive) | > 100 µM (inactive) | 54 µM (inactive) | > 100 µM (inactive) | 44.3 µM (inactive) | 35 µM (inactive) | 16.9 µM (inactive) | > 100 µM (inactive)
14 | CCC(=O)NC(Nc1cc(C)on1)(C(F)(F)F)C(F)(F)F | > 100 µM (inactive) |  | > 100 µM (inactive) | > 100 µM (inactive) | > 100 µM (inactive) | > 100 µM (inactive) | > 100 µM (inactive) | > 100 µM (inactive) | > 100 µM (inactive) | > 100 µM (inactive) | > 100 µM (inactive) | > 100 µM (inactive) | > 100 µM (inactive) | > 100 µM (inactive) | > 100 µM (inactive) | > 100 µM (inactive) |  | > 100 µM (inactive) | > 100 µM (inactive) | > 100 µM (inactive)
15 | CCN1C(=O)/C(=C2\SC(c3ccccc3)(c3ccccc3)c3ccccc32)SC1=S | > 100 µM (inactive) | 64.4 µM (inactive) | > 100 µM (inactive) | 18.6 µM (inactive) | 70.3 µM (inactive) | > 100 µM (inactive) | 51.9 µM (inactive) | > 100 µM (inactive) | 43.9 µM (inactive) | 10.1 µM (inactive) |  | 96.4 µM (inactive) | > 100 µM (inactive) | 36.3 µM (inactive) | 72.3 µM (inactive) | 75.9 µM (inactive) | 24.4 µM (inactive) | > 100 µM (inactive) | > 100 µM (inactive) | > 100 µM (inactive)
